The source of these data is patent US4482551A, “Cephalosporin derivatives” (Hoffmann-La Roche Inc., priority 1982, dated 1984).

Structures can show the parent of a compound that is named as a salt. Where two headings read alike, the source gives them in different places.

One data set deals with Enterobacter cloacae. Briefly: Activity in vitro: Minimum inhibitory concentration. Type of data set: cell-based. Particulars: read-out: Minimum inhibitory concentration. From the text:
(§1) Activity in vitro: Minimum inhibitory concentration

Another data set deals with Escherichia coli. The description is as above. Particulars: read-out: Minimum inhibitory concentration. Format: cell-based.
From the text: as §1

The next data set concerns Haemophilus influenzae. The description is as above. Type of data set: cell-based. To be noted: read-out: Minimum inhibitory concentration.
From the text: as §1

The test system of another data set is Neisseria gonorrhoeae. Described as above. Type of data set: cell-based. To be noted: read-out: Minimum inhibitory concentration.
From the text: as §1

Another data set concerns Proteus mirabilis. The data set is described as above. Format: cell-based. Particulars: read-out: Minimum inhibitory concentration.
From the text: as §1

The next data set concerns Proteus vulgaris. The description is as above. Particulars: read-out: Minimum inhibitory concentration. Type of data set: cell-based.
From the text: as §1

Data set [1] deals with Pseudomonas aeruginosa strain 1. Described as above. Type of data set: cell-based.
From the text: as §1

Data set [2] concerns Pseudomonas aeruginosa strain 2. The description is as above. Format: cell-based.
From the text: as §1

The next data set has as its system Serratia marcescens. The data set is described as above. Type of data set: cell-based. Particulars: read-out: Minimum inhibitory concentration.
From the text: as §1

The next data set concerns Staphylococcus aureus. Described as above. Format: cell-based. Particulars: read-out: Minimum inhibitory concentration.
From the text: as §1

The nature of another data set: Toxicity (LD100). Type of data set: in vivo.
[3] abbreviates: in vitro, lactamase forming strain.

As to `CO/N=C(\C(=O)N[C@@H]1C(=O)N2C(C(=O)[O-])=C(CSc3nc(=O)cnn3C)CS[C@H]12)c1csc(N)n1.[Na+]`, the MIC in the data set with Enterobacter cloacae came out at 2.5 µg/mL; in the data set with Escherichia coli, 0.04 µg/mL; in the data set on Haemophilus influenzae, 0.02 µg/mL; in the data set with Neisseria gonorrhoeae, 0.02 µg/mL; with Proteus mirabilis, 0.04 µg/mL; in the data set on Proteus vulgaris it was 0.02 µg/mL. Also, the MIC came to 40 µg/mL in data set [1] (Pseudomonas aeruginosa, 1, read-out: Minimum inhibitory concentration); 40 µg/mL in data set [2] (Pseudomonas aeruginosa, 2, read-out: Minimum inhibitory concentration); 0.16 µg/mL in the data set on Serratia marcescens; 2.5 µg/mL in the data set on Staphylococcus aureus. The LD100 in the data set “Toxicity (LD100)” (i.v.) is recorded as 1000 mg/kg; in “Toxicity (LD100)” (p.o.) it was more than 5000 mg/kg; in the data set “Toxicity (LD100)” (s.c.), more than 5000 mg/kg.
On to `CO/N=C(\C(=O)N[C@@H]1C(=O)N2C(C(=O)O)=C(CSc3nc(=O)c(C)nn3C)CS[C@H]12)c1csc(N)n1` [Product B, (6R,7R)-7-[2-(2-amino-4-thiazolyl-2-[(Z)-methoxyimino]acetamido]-3-[[(2,5-dihydro-2,6-dimethyl-5-oxo-as-triazin-3-yl)thio]methyl]-8-oxo-5-thia-1-azabicyclo[4.2.0]oct-2-ene-2-carboxylic acid sodium salt], for which the MIC in the data set with Enterobacter cloacae (setting [3]) stood at 2.5 µg/mL; with Escherichia coli (setting [3]), 0.08 µg/mL; in the data set on Haemophilus influenzae (in vitro), 0.02 µg/mL; in the data set with Neisseria gonorrhoeae (in vitro), 0.02 µg/mL; in the data set with Proteus mirabilis (setting [3]), 0.08 µg/mL; in the data set with Proteus vulgaris (setting [3]) it was 0.02 µg/mL. Besides, the MIC in data set [1] (in vitro, Pseudomonas aeruginosa strain 1, lactamase forming strain, read-out: Minimum inhibitory concentration) is 80 µg/mL; in [2] (in vitro, Pseudomonas aeruginosa strain 2, lactamase forming strain, read-out: Minimum inhibitory concentration), 80 µg/mL; in the data set on Serratia marcescens (setting [3]) it was 0.32 µg/mL; in the data set with Staphylococcus aureus (in vitro), 2.5 µg/mL. Further, the LD100 in the data set “Toxicity (LD100)” (i.v.) is 500 mg/kg; in the data set “Toxicity (LD100)” (p.o.), more than 5000 mg/kg; in the data set “Toxicity (LD100)” (s.c.), more than 4000 mg/kg.
